Series [1] concerns Human immunodeficiency virus 1. The series can be described thus: Antiviral activity against HIV1 subtype C isolate 6 infected in HEK293 cells assessed as inhibition of virus replication after 72 hrs. Particulars: Human immunodeficiency virus 1, HEK293, 72 h. The class given is functional, organism-based.
The test system of series [2] is Human immunodeficiency virus 1. The series can be described thus: Antiviral activity against HIV1 subtype A isolate 1 infected in HEK293 cells assessed as inhibition of virus replication after 72 hrs. Type of series: functional, organism-based. Particulars: Human immunodeficiency virus 1, HEK293, 72 h.
The subject of series [3] is Human immunodeficiency virus 1. The experiment in a line: Antiviral activity against HIV1 expressing reverse transcriptase K103N/Y181C/G190A mutant infected in HEK293 cells assessed as inhibition of virus replication after 72 hrs. To be noted: Human immunodeficiency virus 1, HEK293, 72 h. Type of series: functional, organism-based.
In series [4] the test system is HEK293. The experiment in a line: Cytotoxicity against human HEK293 cells at 100 uM. To be noted: hek293, 100 µM. The class given is cell-based.
Series [5] has as its system Human immunodeficiency virus 1. The experiment in a line: Antiviral activity against HIV1 subtype BF isolate 5 infected in HEK293 cells assessed as inhibition of virus replication after 72 hrs. The class given is functional, organism-based. Particulars: Human immunodeficiency virus 1, subtype BF isolate 5, HEK293, 72 h.
For series [6], the system named is Human immunodeficiency virus 1. The series can be described thus: Antiviral activity against HIV1 NL4-3 infected in HEK293 cells assessed as inhibition of virus replication after 72 hrs. Type of series: functional, organism-based. Particulars: Human immunodeficiency virus 1, NL4-3, HEK293, 72 h.
Series [7] deals with Human immunodeficiency virus 1. The series can be described thus: Antiviral activity against HIV1 subtype B isolate 4 infected in HEK293 cells assessed as inhibition of virus replication after 72 hrs. Type of series: functional, organism-based. To be noted: Human immunodeficiency virus 1, HEK293, 72 h.
Series [8] deals with Human immunodeficiency virus 1. The experiment in a line: Antiviral activity against HIV1 expressing reverse transcriptase D67N/K70R/T215F/K219E/M184V mutant infected in HEK293 cells assessed as inhibition of virus replication after 72 hrs. The class given is functional, organism-based. To be noted: Human immunodeficiency virus 1, HEK293, 72 h.
In series [9] the test system is Human immunodeficiency virus 1. The series can be described thus: Antiviral activity against HIV1 subtype C isolate 7 infected in HEK293 cells assessed as inhibition of virus replication after 72 hrs. Particulars: Human immunodeficiency virus 1, subtype C isolate 7, HEK293, 72 h. Type of series: functional, organism-based.
Series [10] deals with Human immunodeficiency virus 1. The experiment in a line: Antiviral activity against HIV1 subtype D isolate 8 infected in HEK293 cells assessed as inhibition of virus replication after 72 hrs. Particulars: Human immunodeficiency virus 1, subtype D isolate 8, HEK293, 72 h. Type of series: functional, organism-based.
The test system of series [11] is Human immunodeficiency virus 1. The series can be described thus: Antiviral activity against HIV1 subtype A isolate 2 infected in HEK293 cells assessed as inhibition of virus replication after 72 hrs. Particulars: Human immunodeficiency virus 1, subtype A isolate 2, HEK293, 72 h. The class given is functional, organism-based.
Series [12] concerns Human immunodeficiency virus 1. The experiment in a line: Antiviral activity against HIV1 subtype B isolate 3 infected in HEK293 cells assessed as inhibition of virus replication after 72 hrs. Particulars: Human immunodeficiency virus 1, subtype B isolate 3, HEK293, 72 h. Type of series: functional, organism-based.
A short description of series [13]: Cmax in human at 600 mg. Type of series: ADME, organism-based. Also noted: dose 600 mg. Particulars: in vivo.
The test system of series [14] is HEK293. The experiment in a line: Cytotoxicity against human HEK293 cells at 600 uM. Type of series: cell-based. To be noted: hek293, 600 µM.
For series [15], the system named is HEK293. The series can be described thus: Cytotoxicity against human HEK293 cells at 2000 uM. The class given is cell-based. Particulars: hek293, 2000 µM.

A word on the EC50: it is the midpoint of the concentration-response curve. As a reminder, the Cmax is the peak of the concentration-time curve.

For the compound `C=C1[C@H](CO)[C@@H](O)C[C@@H]1n1cnc2c(=O)[nH]c(N)nc21.O` [ENTECAVIR], the 50% effective concentration (EC50) in [1] stood at 9.51 µM; in series [2], 12.5 µM; in series [3], 11.7 µM; in series [5] it was 13.6 µM; in [6] it was 12.6 µM; in series [7], 13.5 µM. Further, the EC50 was above 100 µM in [8]; 9.95 µM in [9]; 7.62 µM in series [10]; 13.2 µM in series [11]; 15.1 µM in series [12]. Moreover, in the series with HEK293 [4], the Activity entry is “Non-toxic”.
For the compound `Nc1ccn([C@@H]2CS[C@H](CO)O2)c(=O)n1` [LAMIVUDINE], the EC50 in [1] amounted to 3.9 µM; in series [2], 3.54 µM; in [3] it was 7.16 µM; in series [5], 4.24 µM; in series [6] it was 4.68 µM; in series [7] it was 5.43 µM. Besides, the concentration giving a half-maximal response (EC50) in series [8] was above 300 µM; in series [9], 4.06 µM; in series [10] it was 3.25 µM; in series [11], 4.48 µM; in series [12] it was 4.78 µM.
Turning to `Cc1cn([C@@H]2C[C@@H](O)[C@H](CO)O2)c(=O)[nH]c1=O` [TELBIVUDINE], the concentration for a half-maximal effect (EC50) in [1], in [2], in [3], in series [5], in [6] and in series [7] was above 600 µM throughout. The half-maximal effective concentration (EC50) in series [8], in series [9], in [10], in series [11] and in series [12] was above 600 µM in each case. The peak level in [13] (Cmax) was 13.2 µM. For the same compound, the Activity result with HEK293 [14] and with HEK293 [15] was “Non-toxic” each time.

The values above are taken from ChEMBL document CHEMBL1255476, “Telbivudine exhibits no inhibitory activity against HIV-1 clinical isolates in vitro” (Antimicrob Agents Chemother, 2010).
